In paper PMC10982999, “Structure-Guided Design and Optimization of Covalent VHL-Targeted Sulfonyl Fluoride PROTACs” (Journal of Medicinal Chemistry, 2024):

What was measured:
[1] = biological target: T1, AR (AR-HiBiT LNCaP cells) (Homo sapiens, UniProt P10275, T878A); experiment: AR HiBiT degradation assay; assay type: cell-based; conditions: for Dmax / DC50: LNCaP; for Dmax: read-out: Dmax (AR degradation); for AR degradation in presence of MLN4924: MLN4924 1 μM 3 h pretreatment, then compound 18 h; for AR degradation in presence of epoxomicin: epoxomicin 1 μM 3 h pretreatment, then compound 16 h; for DC50: read-out: DC50 (AR degradation), 16 h
T1 construct: host or cells: AR-HiBiT KI LNCaP
T1 sequence (P10275 1-920 T878A): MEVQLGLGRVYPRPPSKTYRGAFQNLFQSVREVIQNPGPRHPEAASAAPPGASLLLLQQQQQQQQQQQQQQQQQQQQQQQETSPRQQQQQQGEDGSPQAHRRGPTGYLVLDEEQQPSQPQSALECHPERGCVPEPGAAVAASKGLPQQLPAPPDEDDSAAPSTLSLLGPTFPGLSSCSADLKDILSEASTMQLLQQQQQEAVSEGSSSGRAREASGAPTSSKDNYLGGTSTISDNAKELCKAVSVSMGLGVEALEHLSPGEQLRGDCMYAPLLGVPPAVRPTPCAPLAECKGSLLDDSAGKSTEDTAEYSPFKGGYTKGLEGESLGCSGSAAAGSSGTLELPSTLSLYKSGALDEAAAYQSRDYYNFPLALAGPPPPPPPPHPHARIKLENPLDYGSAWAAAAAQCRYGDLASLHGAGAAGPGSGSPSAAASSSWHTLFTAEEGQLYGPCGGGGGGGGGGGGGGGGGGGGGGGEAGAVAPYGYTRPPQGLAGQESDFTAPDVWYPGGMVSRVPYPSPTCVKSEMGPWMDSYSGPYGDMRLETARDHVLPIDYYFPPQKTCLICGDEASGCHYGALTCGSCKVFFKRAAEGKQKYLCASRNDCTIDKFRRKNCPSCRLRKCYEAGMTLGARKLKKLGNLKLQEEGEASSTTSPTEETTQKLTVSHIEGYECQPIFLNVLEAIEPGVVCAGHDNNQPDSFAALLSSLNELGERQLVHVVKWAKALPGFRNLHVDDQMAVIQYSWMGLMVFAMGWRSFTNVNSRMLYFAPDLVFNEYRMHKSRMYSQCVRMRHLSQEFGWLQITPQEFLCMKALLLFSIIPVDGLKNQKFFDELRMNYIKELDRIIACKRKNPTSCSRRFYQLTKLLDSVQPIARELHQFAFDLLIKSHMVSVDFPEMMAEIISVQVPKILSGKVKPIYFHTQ
Protocol: Cellular BRD4/AR HiBiT assay
The HiBiT tagged cells were seeded at 10,000 cells per well in a 384-well plate (Thermo Scientific, 164610) at 25 µL per well in DMEM media containing 10% FBS and incubated overnight. Compounds were dispensed using D300e Digital Dispenser (HP) and normalized to 0.1% DMSO. Cells were pre-treated with Epoxomicin or MLN4924 for 3 h before treatment […]
Nano -Glo HiBiT lytic detection assay was performed as described in the manufacturer protocol (Promega). 25 µL of premixed detection reagent was added to each well of the 384 well assay plate and incubated for 15 min on an orbital shaker (at 600 RPM), and luminescence was read using a PHERAstar FS plate reader (BMG Labtech). Corresponding background RLU values were subtracted from DMSO control values and the percentage of protein (%) of were then calculated against […]
DMSO-treated controls. […]
1:1000 WB), Tubulin (Sigma #4967S 1:5000 WB).

AR-HiBiT LNCaP cells = conditions: 16 h, 75 μM-1 pM

Row | Structure (SMILES) | Dmax [1] | AR degradation in presence of MLN4924 [1] | AR degradation in presence of epoxomicin [1] | DC50 [1] | cytotoxicity (CellTiter-Glo) (AR-HiBiT LNCaP cells)
1 | Cc1cc([C@H](C(=O)N2C[C@H](S(=O)(=O)F)C[C@H]2C(=O)N[C@@H](CC(=O)N2CCC(C#Cc3ccc(C(=O)N[C@H]4C(C)(C)[C@H](Oc5ccc(C#N)c(Cl)c5)C4(C)C)cc3)CC2)c2ccc(-c3scnc3C)cc2)C(C)C)on1 [AR2-VHL-SF2, (3R,5S)-5-(((S)-3-(4-((4-(((1r,3r)-3-(3-Chloro-4-cyanophenoxy)-2,2,4,4-tetramethylcyclobutyl)-carbamoyl)phenyl)ethynyl)piperidin-1-yl)-1-(4-(4-methylthiazol-5-yl)phenyl)-3-oxopropyl)-carbamoyl)-1-((R)-3-methyl-2-(3-methylisoxazol-5-yl)butanoyl)pyrrolidine-3-sulfonyl fluoride] | 59% | AR degradation blockade | AR degradation blockade | 212 nM | did not exhibit cytotoxicity
2 | Cc1cc([C@H](C(=O)N2C[C@H](S(=O)(=O)F)C[C@H]2C(=O)N[C@@H](CC(=O)N2CCC(C#Cc3ccc(C(=O)N[C@H]4C(C)(C)[C@H](Oc5ccc(C#N)c(C(F)(F)F)c5)C4(C)C)cc3)CC2)c2ccc(-c3scnc3C)cc2)C(C)C)on1 [AR-VHL-SF2, (3R,5S)-5-(((S)-3-(4-((4-(((1r,3r)-3-(4-Cyano-3-(trifluoromethyl)phenoxy)-2,2,4,4-tetramethyl-cyclobutyl)carbamoyl)phenyl)ethynyl)piperidin-1-yl)-1-(4-(4-methylthiazol-5-yl)phenyl)-3-oxo-propyl)carbamoyl)-1-((R)-3-methyl-2-(3-methylisoxazol-5-yl)butanoyl)pyrrolidine-3-sulfonyl fluoride] | 54% | AR degradation blockade | AR degradation blockade | 527 nM | did not exhibit cytotoxicity
